Test system: c-myc in 22RV-1 cells
Assay: Human c-myc ELISA assay
Format: cell-based
Details: Homo sapiens; for Emax: 22Rv1, 18 h, read-out: Degradation of BRD4: Maximum inhibition (%) c-Myc ELISA in 22RV1 cells; for DC50: 22Rv1, read-out: Degradation of BRD4: DC50 (uM) c-Myc ELISA in 22RV1 cells
Procedure, shortened: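 c-myc levels measured by ELISA in RIPA lysates of 22RV-1 cells, calibrated with a 333-0 pg/ml standard curve. Lysates came from cells exposed for 18 h to an 8-point, 1:3 dose series starting at 300 nM or 1 μM final in 0.1% DMSO. Suppression potency given as DC50.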

SMILES | DC50 | Emax
Cc1ncsc1-c1ccc([C@H](C)NC(=O)[C@@H]2C[C@@H](O)CN2C(=O)[C@@H](NC(=O)c2cc3cc(O[C@H]4C[C@H](NC(=O)C[C@@H]5N=C(c6ccc(Cl)cc6)c6c(sc(C)c6C)-n6c(C)nnc65)C4)ccc3o2)C(C)(C)C)cc1 [Example 207, (2S,4R)-1-[(2S)-3,3-dimethyl-2-({5-[(1,3trans)-3-{2-[(9S)-7-(4-chlorophenyl)-4,5,13-trimethyl-3-thia-1,8,11,12-tetraazatricyclo[8.3.0.0^2,^6]trideca-2(6),4,7,10,12-pentaen-9-yl]acetamido}cyclobutoxy]-1-benzofuran-2-yl}formamido)butanoyl]-4-hydroxy-N-[(1S)-1-[4-(4-methyl-1,3-thiazol-5-yl)phenyl]ethyl]pyrrolidine-2-carboxamide] | < 0.01 µM | 89.5%
Cc1ncsc1-c1ccc([C@H](C)NC(=O)[C@@H]2C[C@@H](O)CN2C(=O)C(C(C)C)n2cc(-c3cc(F)cc(O[C@@H](C)CNC(=O)C[C@@H]4N=C(c5ccc(Cl)cc5)c5c(sc(C)c5C)-n5c(C)nnc54)c3)cn2)cc1 (stereo partly drawn) [Example 208] | < 0.01 µM | 92%
Cc1ncsc1-c1ccc([C@H](C)NC(=O)[C@@H]2C[C@@H](O)CN2C(=O)C(C(C)C)n2cc(-c3cc(F)cc(O[C@H](C)CNC(=O)C[C@@H]4N=C(c5ccc(Cl)cc5)c5c(sc(C)c5C)-n5c(C)nnc54)c3)cn2)cc1 (stereo partly drawn) [Example 213] | 0.01 to 0.1 µM | 94.3%
Cc1ncsc1-c1ccc(CNC(=O)[C@@H]2C[C@@H](O)CN2C(=O)[C@@H](C(C)C)n2cc(-c3cccc(O[C@H]4C[C@H](NC(=O)C[C@@H]5N=C(c6ccc(Cl)cc6)c6c(sc(C)c6C)-n6c(C)nnc65)C4)c3)cn2)cc1 [Example 216] | > 1 µM | 14.4%
Cc1ncsc1-c1ccc([C@H](C)NC(=O)[C@@H]2C[C@@H](O)CN2C(=O)[C@@H](C(C)C)n2cc(-c3ccnc(O[C@H]4C[C@@H](NC(=O)C[C@@H]5N=C(c6ccc(Cl)cc6)c6c(sc(C)c6C)-n6c(C)nnc65)C4)c3)cn2)cc1 [Example 218, (2S,4R)-4-hydroxy-N-[(1S)-1-[4-(4-methyl-1,3-thiazol-5-yl)phenyl]ethyl]-1-[(2R)-3-methyl-2-(4-{2-1[(1,3-cis)-3-{2-[(9S)-7-(4-chlorophenyl)-4,5,13-trimethyl-3-thia-1,8,11,12-tetraazatricyclo[8.3.0.0^2,^6]trideca-2(6),4,7,10,12-pentaen-9-yl]acetamido}cyclobutoxy]pyridin-4-yl}-1H-pyrazol-1-yl)butanoyl]pyrrolidine-2-carboxamide] | > 1 µM | 48%
Cc1ncsc1-c1ccc([C@H](C)NC(=O)[C@@H]2C[C@@H](O)CN2C(=O)[C@H](C(C)C)n2cc(-c3ccnc(O[C@H]4C[C@@H](NC(=O)C[C@@H]5N=C(c6ccc(Cl)cc6)c6c(sc(C)c6C)-n6c(C)nnc65)C4)c3)cn2)cc1 [Example 219, (2S,4R)-4-hydroxy-N-[(1S)-1-[4-(4-methyl-1,3-thiazol-5-yl)phenyl]ethyl]-1-[(2S)-3-methyl-2-(4-{2-[(1,3-cis)-3-{2-[(9S)-7-(4-chlorophenyl)-4,5,13-trimethyl-3-thia-1,8,11,12-tetraazatricyclo[8.3.0.0^2,^6]trideca-2(6),4,7,10,12-pentaen-9-yl]acetamido}cyclobutoxy]pyridin-4-yl}-1H-pyrazol-1-yl)butanoyl]pyrrolidine-2-carboxamide] | < 0.01 µM | 95.5%
Cc1ncsc1-c1ccc([C@H](C)NC(=O)[C@@H]2C[C@@H](O)CN2C(=O)[C@@H](C(C)C)n2cc(-c3ccnc(O[C@H]4C[C@H](NC(=O)C[C@@H]5N=C(c6ccc(Cl)cc6)c6c(sc(C)c6C)-n6c(C)nnc65)C4)c3)cn2)cc1 [Example 220] | 0.1 to 1 µM | 66.4%
Cc1ncsc1-c1ccc([C@H](C)NC(=O)[C@@H]2C[C@@H](O)CN2C(=O)[C@@H](C(C)C)n2cc(-c3cc(F)cc(OCCNC(=O)C[C@@H]4N=C(c5ccc(Cl)cc5)c5c(sc(C)c5C)-n5c(C)nnc54)c3)cn2)cc1 [Example 223] | 0.1 to 1 µM | 79%
Cc1ncsc1-c1ccc(CNC(=O)[C@@H]2C[C@@H](O)CN2C(=O)[C@@H](C(C)C)n2cc(-c3ccnc(O[C@H]4C[C@H](NC(=O)C[C@@H]5N=C(c6ccc(Cl)cc6)c6c(sc(C)c6C)-n6c(C)nnc65)C4)c3)cn2)cc1 [Example 225, (2S,4R)-4-hydroxy-N-{[4-(4-methyl-1,3-thiazol-5-yl)phenyl]methyl}-1-[(2R)-3-methyl-2-(4-{2-[(1,3trans)-3-{2-[(9 S)-7-(4-chlorophenyl)-4,5,13-trimethyl-3-thia-1,8,11, 12-tetraazatricyclo[8.3.0.0^2,^6]trideca-2(6),4,7,10,12-pentaen-9-yl]acetamido}cyclobutoxy]pyridin-4-yl}-1H-pyrazol-1-yl)butanoyl]pyrrolidine-2-carboxamide] | > 1 µM | 50.4%
Cc1ncsc1-c1ccc(CNC(=O)[C@@H]2C[C@@H](O)CN2C(=O)[C@H](C(C)C)n2cc(-c3ccnc(O[C@H]4C[C@H](NC(=O)C[C@@H]5N=C(c6ccc(Cl)cc6)c6c(sc(C)c6C)-n6c(C)nnc65)C4)c3)cn2)cc1 [Example 226] | 0.01 to 0.1 µM | 99%

The next lines start with results.

DC50 | SMILES | Emax
< 0.01 µM | Cc1ncsc1-c1ccc([C@H](C)NC(=O)[C@@H]2C[C@@H](O)CN2C(=O)[C@@H](NC(=O)COc2cc(F)cc(O[C@H]3C[C@@H](NC(=O)C[C@@H]4N=C(c5ccc(Cl)cc5)c5c(sc(C)c5C)-n5c(C)nnc54)C3)c2)C(C)(C)C)cc1 [Example 209] | 90%
< 0.01 µM | Cc1ncsc1-c1ccc([C@H](C)NC(=O)[C@@H]2C[C@@H](O)CN2C(=O)[C@@H](NC(=O)c2cc3ccc(OCCNC(=O)C[C@@H]4N=C(c5ccc(Cl)cc5)c5c(sc(C)c5C)-n5c(C)nnc54)cc3o2)C(C)(C)C)cc1 [Example 210, (2S,4R)-1-[(2S)-2-{[6-(2-{2-[(9S)-7-(4-chlorophenyl)-4,5,13-trimethyl-3-thia-1,8,11,12-tetraazatricyclo[8.3.0.0^2,^6]trideca-2(6),4,7,10,12-pentaen-9-yl]acetamido}ethoxy)-1-benzofuran-2-yl]formamido}-3,3-dimethylbutanoyl]-4-hydroxy-N-[(1S)-1-[4-(4-methyl-1,3-thiazol-5-yl)phenyl]ethyl]pyrrolidine-2-carboxamide] | 100%
< 0.01 µM | Cc1ncsc1-c1ccc([C@H](C)NC(=O)[C@@H]2C[C@@H](O)CN2C(=O)[C@@H](NC(=O)c2cc3ccc(O[C@H](C)CNC(=O)C[C@@H]4N=C(c5ccc(Cl)cc5)c5c(sc(C)c5C)-n5c(C)nnc54)cc3o2)C(C)(C)C)cc1 [Example 211, (2S,4R)-1-[(2S)-2-[(6-{[(2R)-1-{2-[(9S)-7-(4-chlorophenyl)-4,5,13-trimethyl-3-thia-1,8,11,12-tetraazatricyclo[8.3.0.0^2,^6]trideca-2(6),4,7,10,12-pentaen-9-yl]acetamido}propan-2-yl]oxy}-1-benzofuran-2-yl)formamido]-3,3-dimethylbutanoyl]-4-hydroxy-N-[(1S)-1-[4-(4-methyl-1,3-thiazol-5-yl)phenyl]ethyl]pyrrolidine-2-carboxamide] | 99%
< 0.01 µM | Cc1ncsc1-c1ccc([C@H](C)NC(=O)[C@@H]2C[C@@H](O)CN2C(=O)[C@@H](NC(=O)c2cc3ccc(O[C@H]4C[C@@H](NC(=O)C[C@@H]5N=C(c6ccc(Cl)cc6)c6c(sc(C)c6C)-n6c(C)nnc65)C4)cc3o2)C(C)(C)C)cc1 [Example 212] | 95%
0.01 to 0.1 µM | Cc1ncsc1-c1ccc([C@H](C)NC(=O)[C@@H]2C[C@@H](O)CN2C(=O)C(C(C)C)n2cc(-c3cc(F)cc(O[C@H]4C[C@@H](NC(=O)C[C@@H]5N=C(c6ccc(Cl)cc6)c6c(sc(C)c6C)-n6c(C)nnc65)C4)c3)cn2)cc1 (stereo partly drawn) [Example 214] | 97%
< 0.01 µM | Cc1ncsc1-c1ccc([C@H](C)NC(=O)[C@@H]2C[C@@H](O)CN2C(=O)[C@@H](NC(=O)COc2cc(F)cc(O[C@H]3C[C@H](NC(=O)C[C@@H]4N=C(c5ccc(Cl)cc5)c5c(sc(C)c5C)-n5c(C)nnc54)C3)c2)C(C)(C)C)cc1 [Example 215] | 98%
0.01 to 0.1 µM | Cc1ncsc1-c1ccc(CNC(=O)[C@@H]2C[C@@H](O)CN2C(=O)[C@H](C(C)C)n2cc(-c3cccc(O[C@H]4C[C@H](NC(=O)C[C@@H]5N=C(c6ccc(Cl)cc6)c6c(sc(C)c6C)-n6c(C)nnc65)C4)c3)cn2)cc1 [Example 217] | 91.9%
< 0.01 µM | Cc1ncsc1-c1ccc([C@H](C)NC(=O)[C@@H]2C[C@@H](O)CN2C(=O)[C@@H](NC(=O)c2cc3ccc(O[C@@H](C)CNC(=O)C[C@@H]4N=C(c5ccc(Cl)cc5)c5c(sc(C)c5C)-n5c(C)nnc54)cc3o2)C(C)(C)C)cc1 [Example 221, (2S,4R)-1-[(2S)-2-[(6-{[(2S)-1-{2-[(9S)-7-(4-chlorophenyl)-4,5,13-trimethyl-3-thia-1,8,11,12-tetraazatricyclo[8.3.0.0^2,^6]trideca-2(6),4,7,10,12-pentaen-9-yl]acetamido}propan-2-yl]oxy}-1-benzofuran-2-yl)formamido]-3,3-dimethylbutanoyl]-4-hydroxy-N-[(1S)-1-[4-(4-methyl-1,3-thiazol-5-yl)phenyl]ethyl]pyrrolidine-2-carboxamide] | 100%
< 0.01 µM | Cc1ncsc1-c1ccc([C@H](C)NC(=O)[C@@H]2C[C@@H](O)CN2C(=O)C(C(C)C)n2cc(-c3cccc(OCCNC(=O)C[C@@H]4N=C(c5ccc(Cl)cc5)c5c(sc(C)c5C)-n5c(C)nnc54)c3)cn2)cc1 (stereo partly drawn) [Example 222] | 100%
< 0.01 µM | Cc1ncsc1-c1ccc([C@H](C)NC(=O)[C@@H]2C[C@@H](O)CN2C(=O)[C@H](C(C)C)n2cc(-c3cc(F)cc(OCCNC(=O)C[C@@H]4N=C(c5ccc(Cl)cc5)c5c(sc(C)c5C)-n5c(C)nnc54)c3)cn2)cc1 [Example 224] | 100%
< 0.01 µM | Cc1ncsc1-c1ccc([C@H](C)NC(=O)[C@@H]2C[C@@H](O)CN2C(=O)[C@@H](NC(=O)COc2ccnc(O[C@H]3C[C@H](NC(=O)C[C@@H]4N=C(c5ccc(Cl)cc5)c5c(sc(C)c5C)-n5c(C)nnc54)C3)c2)C(C)(C)C)cc1 [Example 227] | 100%

— patent US11554171B2, “Compounds and methods for the targeted degradation of bromodomain-containing proteins” (Arvinas Operations, Inc., priority 2015, dated 2023)
